Experimental findings from patent US8609658B2, “N,N-dialkylalkylenyl esters, compositions thereof, and methods for use thereof” (Allergan, Inc., priority 2011, dated 2013) are described below.

The data set is described as follows: Aqueous stability in formulation vehicle (% substrate remaining). The data set is classed as physicochemical. The settings on record: 0.0005% w/w (5 ppm) compound in aqueous formulation vehicle, pH 6.

SMILES strings stand for the structures.

In the case of `CC[N+](C)(CC)CCCOC(=O)COc1cccc(NC(=O)c2cc(-c3cccc(F)c3)ccc2F)c1`, the “% Substrate Remaining” value reads like this: (7 days/25° C.) 95.5%; (7 days/40° C.) 49.2%; (28 days/25° C.) 82.6%.

With `CN(C)c1ccc(OC(=O)COc2cccc(NC(=O)c3cc(-c4cccc(F)c4)ccc3F)c2)cc1`, the “% Substrate Remaining” value was 92% (7 days/25° C.), 78.8% (7 days/40° C.) and 78% (28 days/25° C.).

Regarding `CCN(CC)CCCC(C)OC(=O)COc1cccc(NC(=O)c2cc(-c3cccc(F)c3)ccc2F)c1` (stereo not drawn), the “% Substrate Remaining” value reads like this: (7 days/25° C.) 101.2%; (7 days/40° C.) 92%; (28 days/25° C.) 94.4%.

Take `O=C(COc1cccc(NC(=O)c2cc(-c3cccc(F)c3)ccc2F)c1)Oc1ccc(CN2CCOCC2)cc1`: the “% Substrate Remaining” value runs as follows: (7 days/25° C.) 61.5%; (7 days/40° C.) 18%; (28 days/25° C.) 12%.
